Structures can show the parent of a compound that is named as a salt.
Assays:
[1] = Toxicity of BrHPP (sodium salt) in mice, intravenous injection; type: in vivo
Procedure: Eight 30 g mice received an intravenous injection (caudal vein) of 300 μl of PBS buffer containing 1 mg of BrHPP (sodium salt). […] Toxicity is thus less than 12.5% for a dose of 33.4 mg of BrHPP (Na^+) per kilogram of animal body weight.

[2] = Pyrogenicity in rabbits (ISO-10993-11, USP XXIII); type: in vivo
Procedure: This test is performed in accordance with a protocol specified by standards ISO-10993-11 (1993) and USP XXIII. […] Temperature is taken every 30 minutes for 3 hours starting 30 minutes after the injection.

Tγ9δ2 lymphocytes [3] = experiment: Stimulation of the proliferation of Tγ9δ2 lymphocytes in a culture; type: cell-based, human; details: effective dose at 50% of the maximum polyclonal lymphocyte amplification effect; 8 days culture with hIL-2; read-out: ED 50% (the source's name)
Procedure: 20 microliters of the aqueous solution of the compound according to the invention adjusted to the final concentration specified in the test are added to an in vitro culture of 10^6 total T lymphocytes in 1 ml, separated from the blood of a healthy adult human donor and initially containing 1-5% of Tγ9δ2 lymphocytes, in an adequate culture medium (RPMI 1640+10% of inactivated human serum and 50 U/ml of human interleukin-2 (hIL-2)). After culturing for 4 days, 50 U of dIL-2 are added per milliliter of culture medium. After 8 days, the cells are counted, collected, washed with phosphate buffer, and the Tγ9δ2 type cells are detected in the culture by labeling with conventional commercial reagents (fluorescein-labeled monoclonal antibodies) and the proportion thereof determined by flux cytometry analysis. The parameter measured is either the change in the proportion of or the increase in the number of Tγ9δ2 cells in cultures in the presence of the compound according to the invention in comparison with cultures not containing a compound according to the invention.

human Tγ9δ2 lymphocytes = details: cited from earlier work
Tγ9δ2 lymphocyte clone = experiment: Stimulation of induced cytotoxicity of a Tγ9δ2 lymphocyte clone
Tγ9δ2 lymphocytes [4] = experiment: In vivo bioactivity in the macaque: Tγ9δ2 lymphocytes in the blood; set-up: species or system Macaca fascicularis; details: for % of Tγ9δ2 lymphocytes in the blood in vivo (7 days after injection): animals injected BrHPP only
Procedure: (§1) These tests are performed on monkeys of the species Macaca fascicularis (males weight 3-4 kg) anaesthetized with 15 mg/kg Zoletil (zolazepam)®/0.01 mg/kg atropine. The batches of BrHPP (in NA^+ form) are subjected to prior purity testing (>99%), quantified and have been tested in accordance with the pyrogenicity tests of Example 12. The animals are injected by rapid intravenous injection (2-5 minutes into the saphenous vein) with 0.1 mg/kg of BrHPP (i.e. 0.3-0.4 mg per animal) diluted in 10 ml of Ringer lactate. Each animal also receives a subcutaneous injection of 90,000 units of interleukin-2 (IL-2). These injections are performed once daily for four days. Control animals receive only the subcutaneous injection of IL-2 once daily for four days.
(§2) The proportion of Tγ9δ2 lymphocytes in total lymphocytes in the various animals is compared in the following three situations: • in the animal's bloodstream, • in a culture of total lymphocytes taken from the animal receiving only BrHPP, • in a culture of total lymphocytes talken from the animal receiving BrHPP+IL-2.

Tγ9δ2 lymphocytes [5] = experiment: Reactivity ex vivo of Tγ9δ2 lymphocytes from injected macaques in culture; type: cell-based, Macaca fascicularis
Procedure: as §1, §2

[6] = animals injected BrHPP only, twice (1 injection + 1 booster)

CC(O)(CBr)CCOP(=O)(O)OP(=O)(O)O (stereo not shown) [BrHPP (sodium salt), 3-(bromomethyl)-3-butanol-1-yl diphosphate]
Toxicity ([1]; dose of 33.4 mg per kilogram of animal body weight, i.v.): less than 12.5% | signs of shock or pyrogenicity ([1]; eight 30 g mice, i.v. caudal vein, 1 mg in 300 μl PBS): No sign of shock or pyrogenicity | variation in the weight of the mice ([1]; i.v. 1 mg per 30 g mouse, during the study): no significant variation | mice still alive after 30 days ([1]; of eight mice, i.v. 1 mg per 30 g mouse): 8 mice | side-effect on injection ([2]; 400 μg/ml solution, i.v.): muscle tremors | reaction to the injection ([2]; solution diluted 1:40 to 10 μg/ml, one rabbit, in 19 minutes): no reaction to the injection | febrile reaction (increase in temperature greater than 0.5° C.) ([2]; three rabbits, i.v. 400 μg/ml, 10 ml per kilogram, 3 hours): Only one rabbit exhibited an increase in temperature of greater than 0.5 °C

isopentenyl pyrophosphate [IPP]
EC50 (Tγ9δ2 lymphocytes [3]): 3000 nM | minimum active concentration (no activity demonstrated below) (human Tγ9δ2 lymphocytes; best results obtained, prior art compounds): ≥ 3 µM | minimum active concentration relative to natural phosphoantigens (human Tγ9δ2 lymphocytes): ~1000 times higher | concentration at which active in induced cytotoxicity test (Tγ9δ2 lymphocyte clone; Tγ9δ2 lymphocyte clone, decreasing concentrations, FIG. 2): ~3000 nM | active concentration relative to the compounds according to the invention (Tγ9δ2 lymphocyte clone; induced cytotoxicity test): ~300 times higher

3-(iodomethyl)-3-butanol-1-yl diphosphate [IHPP]
EC50 (Tγ9δ2 lymphocytes [3]): 3 nM

CC(O)(CI)CCOP(=O)(O)OP(=O)(O)OP(=O)(O)O (stereo not shown) [IHPPP, 3-(iodomethyl)-3-butanol-1-yl triphosphate]
EC50 (Tγ9δ2 lymphocytes [3]): 70 nM

α,γ di-[3-(iodomethyl)-3-butanol-1-yl] triphosphate [di-IHTP]
EC50 (Tγ9δ2 lymphocytes [3]): 7000 nM

3-(bromomethyl)-3-butanol-1-yl diphosphate [BrHPP]
% of Tγ9δ2 lymphocytes in the blood in vivo (7 days after injection) (Tγ9δ2 lymphocytes [4]; i.v. 0.1 mg/kg, Na+ form): ~1% | % of Tγ9δ2 lymphocytes in the blood in vivo (7 days after injection) (Tγ9δ2 lymphocytes [4]; twice (1 injection + 1 booster)): ~1% | effect on the monkey's Tγ9δ2 lymphocytes in vivo (Tγ9δ2 lymphocytes [4]; intravenous injection of BrHPP in the presence of subcutaneous IL-2): preactivates these same cells and brings about the growth thereof in vivo | effect on the monkey's Tγ9δ2 lymphocytes in vivo (Tγ9δ2 lymphocytes [4]; single or repeated intravenous injection of BrHPP alone): preactivates the monkey's Tγ9δ2 lymphocytes, but does not stimulate the growth thereof in the animal | Reactivity ex vivo of Tγ9δ2 lymphocytes (% after 10 days' culturing in vitro), Amplification by 40 nM BrHPP (Tγ9δ2 lymphocytes [5]; animals injected BrHPP + IL-2): 10% | Reactivity ex vivo of Tγ9δ2 lymphocytes (% after 10 days' culturing in vitro), Amplification by 40 nM BrHPP + IL-2 (Tγ9δ2 lymphocytes [5]; animals injected BrHPP + IL-2): 50.0% | Reactivity ex vivo of Tγ9δ2 lymphocytes (% after 10 days' culturing in vitro), Amplification by 40 nM BrHPP (Tγ9δ2 lymphocytes [5]; animals injected BrHPP only): 1% | Reactivity ex vivo of Tγ9δ2 lymphocytes (% after 10 days' culturing in vitro), Amplification by 40 nM BrHPP (Tγ9δ2 lymphocytes [5]; [6]): 1% | Reactivity ex vivo of Tγ9δ2 lymphocytes (% after 10 days' culturing in vitro), Amplification by 40 nM BrHPP + IL-2 (Tγ9δ2 lymphocytes [5]; [6]): 40.2% | EC50 (Tγ9δ2 lymphocytes [3]): 10 nM

CC(O)(CBr)CCOP(=O)(O)OP(=O)(O)OP(=O)(O)O (stereo not shown) [BrHPPP, 3-(bromomethyl)-3-butanol-1-yl triphosphate]
EC50 (Tγ9δ2 lymphocytes [3]): 120 nM

CC(O)(CBr)CCOP(=O)(O)OP(=O)(O)OP(=O)(O)OCCC(C)(O)CBr (stereo not drawn) [di-BrHTP, α,γ di-[3-(bromomethyl)-3-butanol-1-yl] triphosphate]
EC50 (Tγ9δ2 lymphocytes [3]): 3000 nM

3-(chloromethyl)-3-butanol-1-yl diphosphate [CIHPP]
EC50 (Tγ9δ2 lymphocytes [3]): 100 nM
